Experimental data as given in patent US7902181B2, “Compounds 010” (AstraZeneca AB, priority 2007, dated 2011).
Structures can show the parent of a compound that is named as a salt.

target: Recombinant Human (rh) DPP1 (Homo sapiens, UniProt P53634); assay: Fluorescence Assay for Recombinant Human (rh) DPP1; type: biochemical; conditions: rhDPP1; substrate H-Gly-Arg-AMC; pH5.0; 30 min pre-incubation, 60 min reaction at 22° C.; highest concentration 10 μM; read-out: DPP1 activity, pIC50 (converted)
Description: Fluorescence Assay for Recombinant Human (rh) DPP1
The activity of DPP1 was determined by measuring the enzymatic release of aminomethyl coumarin (AMC) from the peptide substrate (H-Gly-Arg-AMC), which leads to an increase in fluorescence intensity at λex=350 nm and λem=450 nm. The assay was carried out in black 384 well plates in a final volume of 50 μl at 22° C. The assay conditions contained the following: 25 mM piperazine buffer pH5.0; 50 mM NaCl, 5 mM DTT; 0.01% (v/v) Triton X-100; 100 μM H-Gly-Arg-AMC and rhDPP1 ([…]). Potential inhibitors were made up in DMSO and then diluted in the assay to give a final concentration of 1% (v/v) DMSO. A 12-point half-log dilution of the inhibitors (highest concentration 10 μM) was tested and the pIC50 determined using a 4-parameter logistic equation in a non-linear curve fitting routine. A standard DPP1 inhibitor (vinyl sulfone, see below) was used as a positive control in the assay. Routinely, inhibitors were pre-incubated with rhDPP1 for 30 min prior to the addition of the peptide substrate to start the reaction for a further 60 min at 22° C. After that the plates were immediately read in a fluorescence plate reader using the above emission and excitation wavelengths [modified from Kam, C M, Gotz, M G, Koot, G, McGuire, M J, Thiele, D L, Hudig, D & Powers, J C (2004). Arch Biochem Biophys, 427, 123-134 & McGuire, M J, Lipsky, P E & Thiele, D L (1992). Arch Biochem Biophys, 295, 280-288].

Chain of Recombinant Human (rh) DPP1 (P53634 25-463): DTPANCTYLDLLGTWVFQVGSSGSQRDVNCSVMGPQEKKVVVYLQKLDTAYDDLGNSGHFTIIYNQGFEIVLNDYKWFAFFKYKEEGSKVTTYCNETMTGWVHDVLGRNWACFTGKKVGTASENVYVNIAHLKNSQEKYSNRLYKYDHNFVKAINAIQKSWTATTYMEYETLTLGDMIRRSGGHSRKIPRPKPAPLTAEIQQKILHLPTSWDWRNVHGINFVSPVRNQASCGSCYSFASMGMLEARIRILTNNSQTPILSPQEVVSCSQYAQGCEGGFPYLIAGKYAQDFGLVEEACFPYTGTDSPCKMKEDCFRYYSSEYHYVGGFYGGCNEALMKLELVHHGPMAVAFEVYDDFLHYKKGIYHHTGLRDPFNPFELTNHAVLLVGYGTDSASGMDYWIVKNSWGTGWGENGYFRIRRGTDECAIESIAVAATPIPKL

IC50 [nM] | SMILES
794 | N#C[C@H](Cc1ccc(-c2ccccc2O[C@@H]2CCNC2)cc1)NC(=O)[C@@H]1CCCCN1 [Example 13, (S)-N-((S)-1-Cyano-2-(2′-((R)-pyrrolidin-3-yloxy)biphenyl-4-yl)ethyl)piperidine-2-carboxamide Ditrifluoroacetate]
7.94 | N#C[C@H](Cc1ccc(-c2cc3ccccc3[nH]2)cc1)NC(=O)[C@@H]1CCCCN1 [Example 14, (S)-N-((S)-2-(4-(1H-Indol-2-yl)phenyl)-1-cyanoethyl)piperidine-2-carboxamide Trifluoroacetate]
100 | COc1cccc(-c2ccc(C[C@@H](C#N)NC(=O)[C@@H]3CCCCN3)cc2)c1 [Example 15, (2S)-N-[(1S)-1-Cyano-2-(3′-methoxybiphenyl-4-yl)ethyl]piperidine-2-carboxamide Trifluoroacetate]
126 | N#C[C@H](Cc1ccc(-c2ccccc2)cc1)NC(=O)[C@@H]1CCCCN1 [Example 16, Piperidine-2-carboxylic acid (2-biphenyl-4-yl-1-cyano-ethyl)-amide]
200 | N#C[C@H](Cc1ccc(-c2ccccc2)cc1)NC(=O)[C@@H]1C[C@@H](O)CN1 [Example 17, (2S,4R)-N-((S)-2-(Biphenyl-4-yl)-1-cyanoethyl)-4-hydroxypyrrolidine-2-carboxamide]
200 | N#Cc1cccc(-c2ccc(C[C@@H](C#N)NC(=O)[C@@H]3CCN3)cc2)c1 [Example 19, (S)-N-((S)-1-Cyano-2-(3′-cyanobiphenyl-4-yl)ethyl)azetidine-2-carboxamide]
25.1 | CN(C)S(=O)(=O)c1ccc(-c2ccc(C[C@@H](C#N)NC(=O)[C@@H]3CCCCN3)cc2)cc1 [Example 20, (2S)-N-[(1S)-1-Cyano-2-[4-[4-(dimethylsulfamoyl)phenyl]phenyl]ethyl]piperidine-2-carboxamide trifluoroacetate]
50.1 | N#C[C@H](Cc1ccc(-c2cnoc2)cc1)NC(=O)[C@@H]1CCCCN1 [Example 21, (2S)-N-[(1S)-1-Cyano-2-(4-1,2-oxazol-4-ylphenyl)ethyl]piperidine-2-carboxamide trifluoroacetate]
63.1 | CSc1cccc(-c2ccc(C[C@@H](C#N)NC(=O)[C@@H]3CCCCN3)cc2)c1 [Example 22, (2S)-N-[(1S)-1-Cyano-2-[4-(3-methylsulfanylphenyl)phe-nyl]ethyl]piperidine-2-carboxamide trifluoroacetate]
63.1 | N#C[C@H](Cc1ccc(-c2ccc(O)cc2)cc1)NC(=O)[C@@H]1CCCCN1 [Example 23, (2S)-N-[(1S)-1-Cyano-2-[4-(4-hydroxyphenyl)phenyl]ethyl]piperidine-2-carboxamide trifluoroacetate]
15.8 | N#Cc1ccc(-c2ccc(C[C@@H](C#N)NC(=O)[C@@H]3CCCCN3)cc2)cc1 [Example 24, (2S)-N-[(1S)-1-Cyano-2-[4-(4-cyanophenyl)phenyl]ethyl]piperidine-2-carboxamide trifluoroacetate]
63.1 | COc1ccc(-c2ccc(C[C@@H](C#N)NC(=O)[C@@H]3CCCCN3)cc2)cc1 [Example 25, (2S)-N-[(1S)-1-Cyano-2-[4-(4-methoxyphenyl)phenyl]ethyl]piperidine-2-carboxamide trifluoroacetate]
63.1 | Cn1cc(-c2ccc(C[C@@H](C#N)NC(=O)[C@@H]3CCCCN3)cc2)cn1 [Example 26, (2S)-N-[(1S)-1-Cyano-2-[4-(1-methylpyrazol-4-yl)phenyl]ethyl]piperidine-2-carboxamide trifluoroacetate]
63.1 | N#C[C@H](Cc1ccc(-c2ccc(CCCO)cc2)cc1)NC(=O)[C@@H]1CCCCN1 [Example 27, (2S)-N-[(1S)-1-Cyano-2-[4-[4-(3-hydroxypropyl)phenyl]phenyl]ethyl]piperidine-2-carboxamide trifluoroacetate]
100 | N#C[C@H](Cc1ccc(-c2ccc3c(c2)OCO3)cc1)NC(=O)[C@@H]1CCCCN1 [Example 28, (2S)-N-[(1S)-2-(4-Benzo[1,3]dioxol-5-ylphenyl)-1-cyano-ethyl]piperidine-2-carboxamide trifluoroacetate]
100 | N#C[C@H](Cc1ccc(-c2ccc(F)c(F)c2)cc1)NC(=O)[C@@H]1CCCCN1 [Example 29, (2S)-N-[(1S)-1-Cyano-2-[4-(3,4-difluorophenyl)phenyl]ethyl]piperidine-2-carboxamide trifluoroacetate]

IC50 [nM] | SMILES
100 | N#C[C@H](Cc1ccc(-c2ccc(F)cc2OCc2ccccc2)cc1)NC(=O)[C@@H]1CCCCN1 [Example 30, (2S)-N-[(1S)-1-Cyano-2-[4-(4-fluoro-2-phenylmethoxy-phenyl)phenyl]ethyl]pipe-ridine-2-carboxamide trifluoroacetate]
158 | COc1ccc(-c2ccc(C[C@@H](C#N)NC(=O)[C@@H]3CCCCN3)cc2)cc1F [Example 31, (2S)-N-[(1S)-1-Cyano-2-[4-(3-fluoro-4-methoxy-phenyl)phenyl]ethyl]pipe-ridine-2-carboxamide trifluoroacetate]
158 | COc1ccc(-c2ccc(C[C@@H](C#N)NC(=O)[C@@H]3CCCCN3)cc2)cc1OC [Example 32, (2S)-N-[(1S)-1-Cyano-2-[4-(3,4-dimethoxyphenyl)phenyl]ethyl]piperidine-2-carboxamide trifluoroacetate]
200 | COc1ccc(-c2ccc(C[C@@H](C#N)NC(=O)[C@@H]3CCCCN3)cc2)c(OC)c1 [Example 33, (2S)-N-[(1S)-1-Cyano-2-[4-(2,4-dimethoxyphenyl)phenyl]ethyl]piperidine-2-carboxamide trifluoroacetate]
200 | N#C[C@H](Cc1ccc(-c2cccc(C(N)=O)c2)cc1)NC(=O)[C@@H]1CCCCN1 [Example 34, (2S)-N-[(1S)-2-[4-(3-Carbamoylphenyl)phenyl]-1-cyano-ethyl]piperidine-2-carboxamide trifluoroacetate]
251 | N#C[C@H](Cc1ccc(-c2ccc3c(c2)OCCO3)cc1)NC(=O)[C@@H]1CCCCN1 [Example 35, (2S)-N-[(1S)-1-Cyano-2-[4-(2,5-dioxabicyclo[4.4.0]deca-7,9,11-trien-8-yl)phenyl]ethyl]piperidine-2-carboxamide trifluoroacetate]
251 | N#C[C@H](Cc1ccc(-c2ccc(CN)cc2)cc1)NC(=O)[C@@H]1CCCCN1 [Example 36, (2S)-N-[(1S)-2-[4-[4-(Aminomethyl)phenyl]phenyl]-1-cyano-ethyl]piperidine-2-carboxamide trifluoroacetate]
316 | CN(C)c1ncc(-c2ccc(C[C@@H](C#N)NC(=O)[C@@H]3CCCCN3)cc2)cn1 [Example 37, (2S)-N-[(1S)-1-Cyano-2-[4-(2-dimethylaminopyrimidin-5-yl)phenyl]ethyl]piperidine-2-carboxamide trifluoroacetate]
316 | Cc1cscc1-c1ccc(C[C@@H](C#N)NC(=O)[C@@H]2CCCCN2)cc1 [Example 38, (2S)-N-[(1S)-1-Cyano-2-[4-(4-methylthiophen-3-yl)phenyl]ethyl]piperidine-2-carboxamide trifluoroacetate]
316 | CCCOc1ccc(-c2ccc(C[C@@H](C#N)NC(=O)[C@@H]3CCCCN3)cc2)cc1F [Example 39, (2S)-N-[(1S)-1-Cyano-2-[4-(3-fluoro-4-propoxy-phenyl)phenyl]ethyl]pipe-ridine-2-carboxamide trifluoroacetate]
316 | COc1ncccc1-c1ccc(C[C@@H](C#N)NC(=O)[C@@H]2CCCCN2)cc1 [Example 40, (2S)-N-[(1S)-1-Cyano-2-[4-(2-methoxypyridin-3-yl)phenyl]ethyl]piperidine-2-carboxamide trifluoroacetate]
398 | Cn1nccc1-c1ccc(C[C@@H](C#N)NC(=O)[C@@H]2CCCCN2)cc1 [Example 41, (2S)-N-[(1S)-1-Cyano-2-[4-(2-methylpyrazol-3-yl)phenyl]ethyl]piperidine-2-carboxamide trifluoroacetate]
501 | CN(C)C(=O)c1cccc(-c2ccc(C[C@@H](C#N)NC(=O)[C@@H]3CCCCN3)cc2)c1 [Example 42, (2S)-N-[(1S)-1-Cyano-2-[4-[3-(dimethylcarbamoyl)phe-nyl]phenyl]ethyl]piperi-dine-2-carboxamide trifluoroacetate]
631 | CCS(=O)(=O)c1ccc(-c2ccc(C[C@@H](C#N)NC(=O)[C@@H]3CCCCN3)cc2)c(C)c1 [Example 43, (2S)-N-[(1S)-1-Cyano-2-[4-(4-ethylsulfonyl-2-methyl-phenyl)phenyl]ethyl]pipe-ridine-2-carboxamide trifluoroacetate]
631 | COc1c(F)cc(F)cc1-c1ccc(C[C@@H](C#N)NC(=O)[C@@H]2CCCCN2)cc1 [Example 44, (2S)-N-[(1S)-1-Cyano-2-[4-(3,5-difluoro-2-methoxy-phenyl)phenyl]ethyl]pipe-ridine-2-carboxamide trifluoroacetate]
